# Where two headings read alike, the source gives them in different places.
# Assays:
# [1] = molecular target: EGFR L858R/T790M (H1975 cells) (Homo sapiens (Human), UniProt P00533, L858R/T790M); assay: Phospho-EGFR signaling immunoblot (1 hr), H1975 cells; assay type: cell-based; details: WT EGFR (A431) vs H1975
# Protocol: (§1) A431 human epidermoid carcinoma, H1975 human NSCLC and HCC827 human NSCLC adenocarcinoma cells were obtained from the American Type Culture Center (Manassas, Va.). A431 cells were grown in DMEM (Invitrogen, Carlsbad, Calif.) supplemented with 10% FBS (HyClone, South Logan, Utah) and 1% Penicillin-Streptomycin (P/S, Lonza, Walkersville, Md.).
# (§2) All primary antibodies were obtained from Cell Signaling (Danvers, Mass.) and used at 1:1000. Secondary antibodies were used at 1:10,000. Goat anti-mouse IgG IRDye 800CW antibody was obtained from LiCor Biosciences (Lincoln, Nebr.) and goat anti-rabbit IgG Alexa Fluor 680 was obtained from Invitrogen.
# (§3) Cells were grown in 12-well plates (Corning, Coring, N.Y.) to 90% confluence and then incubated in low-serum (0.1% FBS) media for 16-18 hr. […] A431 cells were then stimulated with 50 ng/ml EGF (Peprotech, Rocky Hill, N.J.) for 15 min. After treatment, cell monolayers were washed with cold PBS (Invitrogen) and immediately lysed by scrapping into 60 uL cold Cell Extraction Buffer (Invitrogen) supplemented with Complete Protease inhibitors (Roche, Indianapolis, Ind.) and PhosphoSTOP (Roche) phosphatase inhibitors.
# (§4) Phospho-protein signals were quantitated using Odyssey Infrared Imaging (Li-Cor Biosciences).
# (§5) To assess phosphor-EGFR signaling, blots were probed with rabbit anti-Phospho-EGFR (Y1068) and mouse total anti-EGFR antibodies. Phospho-EGFR signal was normalized to total EGFR expression for each sample. […] Normalized data was fitted using a sigmoidal curve analysis program (Graph Pad Prism version 5) with variable Hill slope to determine the EC50 values.
# [2] = system: H1975 cells (EGFR L858R/T790M); assay: Cell proliferation (CellTiter Glo, 72 hr), H1975 cells; assay type: cell-based, human
# Protocol: as §1
# (§6) Cells were plated in Growth Media supplemented with 5% FBS and 1% P/S at a density of 3,000 cells per well in 96 well tissue culture plates (Corning). […] Growth inhibition (GI50) values were determined by Graph Pad Prism.
# [3] = system: HCC827 cells (EGFR delE746-A750); assay: Cell proliferation (CellTiter Glo, 72 hr), HCC827 cells; assay type: cell-based, human
# Protocol: as §1, §6
# [4] = molecular target: pEGFR in H1975 cells (Homo sapiens (Human), UniProt P00533, L858R/T790M); assay: Washout experiment in H1975 cells; assay type: cell-based; details: 500 nM for 1 hr, then washout
# Protocol: Washout Experiment in H1975 Cells Containing EGFR Deletion/T790M Mutation
# Cells were plated in Growth Media supplemented with 10% FBS and 1% P/S at a density of 2.0×10^5 cells per well in 12 well tissue culture plates. Cells were allowed to settle down for 4 hrs and then maintained in low-serum (0.1% FBS) media overnight.
# The following morning the media was removed and the cells were treated with 500 nM test compound in low-serum media for 1 hr. The cells were washed free of compound 2× with PBS (Invitrogen). One set of cells were immediately lysed as indicated above as the 0 hr time point. The remaining cells were incubated with complete RPMI-1640 growth media (10% FBS) for 1, 3, 6 and 24 hr. For the first 1 hr, cells were washed 2× with PBS every 30 min. DMSO (0.5%) controls were collected at the 0, 3, 6 and 24 hr time points.
# [5] = molecular target: EGFR delE746-A750 (HCC827 cells) (Homo sapiens (Human), UniProt P00533, DEL746-750); assay: Phospho-EGFR signaling immunoblot (1 hr), HCC827 cells; assay type: cell-based; details: WT EGFR (A431) vs HCC827
# Protocol: as §1, §2, §3, §4, §5
# [6] = proliferation, WT EGFR (A431) vs H1975
# [7] = proliferation, WT EGFR (A431) vs HCC827
smiles,measurement,setting,value
"C=CC(=O)Nc1cccc(Nc2nc(Nc3ccc(N4CCOCC4)cc3OC)ncc2C(F)(F)F)c1 [Compound I-2, N-(3-(2-(2-methoxy-4-morpholinophenylamino)-5-(trifluoromethyl)pyrimidin-4-ylamino)phenyl)acrylamide]",Ratio WT/mutant,[1],>50
same,Ratio WT/mutant,[2]; [6],>20
same,Ratio WT/mutant,[3]; [7],>40
same,duration of action after compound removal,[4],prolonged duration of action after compound removal
"C=CC(=O)Nc1cccc(Nc2nc(Nc3ccc(N4CCN(C(C)=O)CC4)cc3OC)ncc2C(F)(F)F)c1 [Compound I-4, N-(3-(2-(4-(4-acetylpiperazin-1-yl)-2-methoxyphenylamino)-5-(trifluoromethyl)pyrimidin-4-ylamino)phenyl)acrylamide]",duration of action after compound removal,[4],prolonged duration of action after compound removal
"C=CC(=O)Nc1cccc(Oc2nc(Nc3ccc(N4CCN(C(=O)CO)CC4)cc3OC)ncc2C(F)(F)F)c1 [Compound I-11, N-(3-(2-(4-(4-(2-hydroxyacetyl)piperazin-1-yl)-2-methoxyphenylamino)-5-(trifluoromethyl)pyrimidin-4-yloxy)phenyl)acrylamide]",Ratio WT/mutant,[1],>15
same,Ratio WT/mutant,[2]; [6],>5
same,Ratio WT/mutant,[3]; [7],>45
"C=CC(=O)Nc1cccc(Nc2nc(Nc3ccc(N4CCN(C(=O)CO)CC4)cc3OC)ncc2Cl)c1 [Compound I-12, N-(3-(5-chloro-2-(4-(4-(2-hydroxyacetyl)piperazin-1-yl)-2-methoxyphenylamino)pyrimidin-4-ylamino)phenyl)acrylamide]",Ratio WT/mutant,[1],>1
same,Ratio WT/mutant,[2]; [6],>1
same,Ratio WT/mutant,[3]; [7],>30
"C=CC(=O)Nc1cccc(Nc2nc(Nc3ccc(N4CCOCC4)cc3OC(F)F)ncc2C(F)(F)F)c1 [Compound I-14, N-(3-(2-(2-(difluoromethoxy)-4-morpholinophenylamino)-5-(trifluoromethyl)pyrimidin-4-ylamino)phenyl)acrlamide]",Ratio WT/mutant,[1],>15
same,Ratio WT/mutant,[5],>15
same,Ratio WT/mutant,[2]; [6],>5
same,Ratio WT/mutant,[3]; [7],>10
"C=CC(=O)Nc1cccc(Nc2nc(Nc3ccc(N4CCN(S(C)(=O)=O)CC4)cc3OC)ncc2C(F)(F)F)c1 [Compound I-17, N-(3-(2-(2-methoxy-4-(4-(methylsulfonyl)piperazin-1-yl)phenylamino)-5-(trifluoromethyl)pyrimidin-4-ylamino)phenyl)acrylamide]",Ratio WT/mutant,[1],>30
same,Ratio WT/mutant,[5],>5
same,Ratio WT/mutant,[2]; [6],>10
same,Ratio WT/mutant,[3]; [7],>15
"C=CC(=O)Nc1cccc(Oc2nc(Nc3ccc(N4CCN(C(=O)NC)CC4)cc3OC)ncc2C(F)(F)F)c1 [Compound I-21, 4-(4-(4-(3-acrylamidophenoxy)-5-(trifluoromethyl)pyrimidin-2-ylamino)-3-methoxyphenyl)-N-methylpiperazine-1-carboxamide]",Ratio WT/mutant,[1],>5
same,Ratio WT/mutant,[2]; [6],>1
same,Ratio WT/mutant,[3]; [7],>20
"C=CC(=O)Nc1cccc(Oc2nc(Nc3ccc(N4CCN(S(C)(=O)=O)CC4)cc3OC)ncc2C(F)(F)F)c1 [Compound I-22, N-(3-(2-(2-methoxy-4-(4-(methylsulfonyl)piperazin-1-yl)phenylamino)-5-(trifluoromethyl)pyrimidin-4-yloxy)phenyl)acrylamide]",Ratio WT/mutant,[1],>35
same,Ratio WT/mutant,[2]; [6],>10
same,Ratio WT/mutant,[3]; [7],>35
"C=CC(=O)Nc1cccc(Oc2nc(Nc3ccc(N4CCN(S(C)(=O)=O)CC4)cc3OC)ncc2Cl)c1 [Compound I-26, N-(3-(5-chloro-2-(2-methoxy-4-(4-(methylsulfonyl)piperazin-1-yl)phenylamino)pyrimidin-4-yloxy)phenyl)acrylamide]",Ratio WT/mutant,[1],>40
same,Ratio WT/mutant,[2]; [6],>1
same,Ratio WT/mutant,[3]; [7],>35
"C=CC(=O)Nc1cccc(Nc2nc(Nc3ccc(N4CCN(C(C)=O)CC4)cc3OC(F)(F)F)ncc2C(F)(F)F)c1 [Compound I-33, N-(3-(2-(4-(4-acetylpiperazin-1-yl)-2-(trifluoromethoxy)phenylamino)-5-(trifluoromethyl)pyrimidin-4-ylamino)phenyl)acrylamide]",Ratio WT/mutant,[1],>50
same,Ratio WT/mutant,[2]; [6],>30
same,Ratio WT/mutant,[3]; [7],>15
"C=CC(=O)Nc1cccc(Nc2nc(Nc3ccc(N4CCN(C(=O)C(C)(C)C)CC4)cc3OC)ncc2C(F)(F)F)c1 [Compound I-34, N-(3-(2-(2-methoxy-4-(4-pivaloylpiperazin-1-yl)phenylamino)-5-(trifluoromethyl)pyrimidin-4-ylamino)phenyl)acrylamide]",Ratio WT/mutant,[1],>35
same,Ratio WT/mutant,[2]; [6],>5
same,Ratio WT/mutant,[3]; [7],>50
"C=CC(=O)Nc1cccc(Nc2nc(Nc3ccc(N4CCN(C(C)=O)CC4)cc3OC)ncc2Br)c1 [Compound I-40, N-(3-(2-(4-(4-acetylpiperazin-1-yl)-2-methoxyphenylamino)-5-bromopyrimidin-4-ylamino)phenyl)acrylamide]",Ratio WT/mutant,[1],>1
same,Ratio WT/mutant,[2]; [6],>5
same,Ratio WT/mutant,[3]; [7],>10
"C=CC(=O)Nc1cccc(Nc2nc(Nc3ccc(N4CCN(S(C)(=O)=O)CC4)cc3OC)ncc2Cl)c1 [Compound I-41, N-(3-(5-chloro-2-(2-methoxy-4-(4-(methylsulfonyl)piperazin-1-yl)phenylamino)pyrimidin-4-ylamino)phenyl)acrylamide]",Ratio WT/mutant,[1],>1
same,Ratio WT/mutant,[2]; [6],>1
same,Ratio WT/mutant,[3]; [7],>20
"C=CC(=O)Nc1cccc(Nc2nc(Nc3ccc(N4CCCN(C(=O)OC(C)(C)C)CC4)cc3OC)ncc2C(F)(F)F)c1 [Compound I-44, tert-butyl 4-(4-(4-(3-acrylamidophenylamino)-5-(trifluoromethyl)pyrimidin-2-ylamino)-3-methoxyphenyl)-1,4-diazpane-1-carboxylate]",Ratio WT/mutant,[1],>5
same,Ratio WT/mutant,[2]; [6],>5
same,Ratio WT/mutant,[3]; [7],>5
"C=CC(=O)Nc1cccc(Oc2nc(Nc3ccc(N4CCN(C(=O)OC(C)(C)C)CC4)cc3OC)ncc2Cl)c1 [Compound I-46, tert-butyl 4-(4-(4-(3-acrylamidophenoxy)-5-chloropyrimidin-2-ylamino)-3-methoxyphenyl)piperazine-1-carboxylate]",Ratio WT/mutant,[1],>10
same,Ratio WT/mutant,[5],>50
same,Ratio WT/mutant,[2],>1
same,Ratio WT/mutant,[3],>10
"C=CC(=O)Nc1cccc(Nc2nc(Nc3ccc(N4CCN(C(C)=O)[C@H](C(=O)OC)C4)cc3OC)ncc2C(F)(F)F)c1 [Compound I-48, (S)-methyl 1-acetyl-4-(4-(4-(3-acrylamidophenylamino)-5-(trifluoromethyl)pyrimidin-2-ylamino)-3-methoxyphenyl)piperazine-2-carboxylate]",Ratio WT/mutant,[1],>50
same,Ratio WT/mutant,[2]; [6],>10
same,Ratio WT/mutant,[3]; [7],>15
"C=CC(=O)Nc1cccc(Nc2nc(Nc3ccc(N4CCS(=O)(=O)CC4)cc3OC)ncc2C(F)(F)F)c1 [Compound I-49, N-(3-(2-(2-methoxy-4,4-dioxo-4-thiomorpholinophenylamino)-5-(trifluoromethyl)pyrimidin-4-ylamino)phenyl)acrylamide]",Ratio WT/mutant,[1],>20
same,Ratio WT/mutant,[2]; [6],>10
same,Ratio WT/mutant,[3]; [7],>25

# Reference: patent US11096942B2, “Heterocyclic compounds and uses thereof” (Celgene CAR LLC, priority 2010, dated 2021)
